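Tested at 5 concentrations; 48 h exposure; 96-well plates; endpoints linearly interpolated, else capped at highest concentration. GI50 marks 50% less growth. TGI is the concentration that stops growth completely.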
Experiments:
Experiment in all cases: NCI tumour cell line growth inhibition, 48 h
SN12K1 renal = test system: SN12K1 renal
M19-MEL melanoma = test system: M19-MEL melanoma
XF 498 CNS = test system: XF 498 CNS
P388 leukemia = test system: P388 leukemia
DLD-1 colon = test system: DLD-1 colon
P388/ADR leukemia = test system: P388/ADR leukemia
MDA-N = test system: MDA-N
DMS 273 small cell lung = test system: DMS 273 small cell lung
DMS 114 small cell lung = test system: DMS 114 small cell lung
KM20L2 colon = test system: KM20L2 colon
LXFL 529 NSCLC = test system: LXFL 529 NSCLC
RXF-631 renal = test system: RXF-631 renal

| SMILES | TGI (M19-MEL melanoma) | TGI (XF 498 CNS) | TGI (DLD-1 colon) | TGI (DMS 273 small cell lung) | TGI (DMS 114 small cell lung) | TGI (KM20L2 colon) | TGI (LXFL 529 NSCLC) | TGI (RXF-631 renal) | also measured |
| --- | --- | --- | --- | --- | --- | --- | --- | --- | --- |
| COc1cc(NCc2ccc3nc(N)nc(N)c3c2C)cc(OC)c1OC (tested in a mixture with another compound) | 52.5 µM | 8.19 µM | 95.6 µM | 12.3 µM | 37.7 µM | 48.5 µM | – | – | TGI (SN12K1 renal): 36.6 µM; TGI (P388 leukemia): 10 µM; TGI (P388/ADR leukemia): 12.7 µM; GI50 (MDA-N): 0.025 µM; TGI (MDA-N): 44.9 µM |
| N#C/C1=C(\N)CCSSSC1 | > 100 µM | > 100 µM | > 100 µM | > 100 µM | > 100 µM | 49.3 µM | > 100 µM | > 100 µM | – |
| CCOc1ccccc1NC(=O)C(=O)CC(=O)c1sc(Nc2nnc(-c3ccc(Cl)c(Cl)c3)o2)nc1C | > 100 µM | – | > 100 µM | > 100 µM | > 100 µM | > 100 µM | > 100 µM | – | – |
| OCC1OC(c2nc(C3=NCCCN3)cs2)C(O)C1O (centres undefined) | > 100 µM | > 100 µM | > 100 µM | > 100 µM | > 100 µM | > 100 µM | > 100 µM | > 100 µM | – |
| O=C(/C=C/c1cccc2ccccc12)c1ccccc1Cl | – | 20.6 µM | 24 µM | 31.5 µM | 27.6 µM | 25.6 µM | 26.8 µM | 41.9 µM | – |
| C1=CC(N(c2ccccc2)C2C=CCCC2)CCC1 (centres undefined) | > 100 µM | – | > 100 µM | > 100 µM | > 100 µM | > 100 µM | > 100 µM | – | – |
| CCCC(=O)Nc1cc2c3c(c1)CCCN3CCC2 | – | – | – | – | – | – | – | – | TGI (MDA-N): > 10 µM |
| CCC[CH2][Sn]([Cl])([CH2]CCC)[CH2]CCC | 0.236 µM | 0.202 µM | 1.02 µM | – | 0.225 µM | 0.295 µM | 0.202 µM | – | GI50 (M19-MEL melanoma): 0.11 µM; GI50 (XF 498 CNS): 0.0599 µM; GI50 (DLD-1 colon): 0.0853 µM; GI50 (DMS 114 small cell lung): 0.068 µM; GI50 (LXFL 529 NSCLC): 0.0645 µM; GI50 (KM20L2 colon): 0.136 µM |
| CCCc1nc(NC#N)nc(C(=O)Nc2ccccc2)c1CC | > 100 µM | > 100 µM | > 100 µM | > 100 µM | > 100 µM | > 100 µM | > 100 µM | > 100 µM | – |
| CC12CP(=O)(c3ccccc3)CC1C2(Cl)Cl (centres undefined) | > 100 µM | > 100 µM | > 100 µM | > 100 µM | > 100 µM | > 100 µM | > 100 µM | – | – |
| CCOC(=O)C(=[N+]=[N-])[Si](C)(C)C | > 100 µM | > 100 µM | > 100 µM | > 100 µM | > 100 µM | > 100 µM | – | – | – |
| CCOc1ccc(NC(=O)CC#N)cc1 | > 100 µM | > 100 µM | > 100 µM | > 100 µM | – | > 100 µM | > 100 µM | > 100 µM | – |
| O=C(c1ccccc1Br)C(F)(F)F | – | – | – | – | – | – | – | – | TGI (MDA-N): > 100 µM |
| O=C(Nc1nc(=S)c2c(ncn2CCOC(=O)c2ccccc2)[nH]1)c1ccccc1 | > 100 µM | – | > 100 µM | > 100 µM | > 100 µM | > 100 µM | > 100 µM | – | – |
| CC1CN(C(=O)CN2CCC(CCCCN(C)C)CC2)c2ccccc2NC1=O (centres undefined) | > 100 µM | – | > 100 µM | > 100 µM | > 100 µM | > 100 µM | > 100 µM | > 100 µM | – |
| COC(=O)C(Cc1nc2ccc(Cl)cc2[nH]c1=O)/C(=N\N)C(=O)Nc1cc(C)c(Cl)cc1S(=O)(=O)O (centres undefined) | – | – | > 100 µM | – | > 100 µM | – | > 100 µM | – | – |
| CC(=O)c1sc(Nc2nnc(-c3ccc(-c4nnc(Nc5nc(C)c(C(C)=O)s5)o4)cc3)o2)nc1C | – | – | > 100 µM | > 100 µM | > 100 µM | > 100 µM | > 100 µM | – | – |
| CCOC(=O)Nc1ccc(C)c(NC(=O)OCC)c1 | – | – | – | – | – | – | – | – | TGI (MDA-N): > 100 µM |
| Cc1cc(Cl)ccc1NC(=O)C(=O)Cc1nc2ccccc2o1 | > 100 µM | > 100 µM | > 100 µM | > 100 µM | > 100 µM | > 100 µM | > 100 µM | > 100 µM | – |
| COc1cc(NS(C)(=O)=O)ccc1Nc1c2ccccc2nc2c1[nH]c1ccc(NC3OC(CO)C(O)C(O)C3O)cc12 (centres undefined) | 1.75 µM | 0.832 µM | 1.93 µM | 0.261 µM | 0.0784 µM | 1.87 µM | 2.46 µM | – | TGI (MDA-N): 2.71 µM |

| SMILES | TGI (M19-MEL melanoma) | TGI (XF 498 CNS) | TGI (DLD-1 colon) | TGI (DMS 273 small cell lung) | TGI (DMS 114 small cell lung) | TGI (KM20L2 colon) | TGI (LXFL 529 NSCLC) | TGI (RXF-631 renal) | also measured |
| --- | --- | --- | --- | --- | --- | --- | --- | --- | --- |
| CCN1CCC(O)(c2ccc(OC)cc2)C(C(=O)c2ccc(OC)cc2)C1 (centres undefined) | 34.9 µM | 31.7 µM | 36.3 µM | 50.2 µM | 40.8 µM | 33.2 µM | 37.2 µM | 47.5 µM | – |
| O=C(O)Cc1cc(Cl)ccc1O | – | – | – | – | – | – | – | – | TGI (MDA-N): > 100 µM |
| CCC(C)COC(=O)c1ccc(N=Cc2ccc(C=Nc3ccc(C(=O)OCC(C)CC)cc3)cc2)cc1 (centres undefined) | – | – | > 100 µM | > 100 µM | > 100 µM | > 100 µM | > 100 µM | > 100 µM | – |
| O=C1/C(=C/c2ccc3c(c2)OCO3)SC2C=Nc3ccccc3N12 (centres undefined) | > 100 µM | > 100 µM | > 100 µM | > 100 µM | > 100 µM | > 100 µM | > 100 µM | > 100 µM | – |
| Cc1c2c(C#N)nccc2c(C)c2c1c1ccccc1n2Cc1ccccc1 | – | – | – | – | – | – | – | – | TGI (MDA-N): > 100 µM |
| CC(=O)Oc1c2c(c(O)c3ccccc13)C(n1cnc3c(ncn3C3OC(CO)C4OC(C)(C)OC43)c1=N)CCC2 (centres undefined) | 23.8 µM | – | 27.4 µM | 40.6 µM | 21.7 µM | 53.5 µM | – | – | – |
| CCOc1ccc(NC(=O)C(=O)CC(=O)c2c(C)n([O-])c3ccccc3[n+]2=O)cc1 | > 100 µM | > 100 µM | – | > 100 µM | > 100 µM | > 100 µM | > 100 µM | > 100 µM | – |
| CN(C)CC[PH+](c1ccccc1)c1ccccc1.CN(C)CC[PH+](c1ccccc1)c1ccccc1.[Cl-].[Pd+2] | – | – | – | – | – | – | – | – | GI50 (MDA-N): > 100 µM; TGI (MDA-N): > 100 µM |
| COc1cccc(C2=NC(C(C)C)CO2)c1 (centres undefined) | > 100 µM | > 100 µM | > 100 µM | > 100 µM | > 100 µM | > 100 µM | > 100 µM | – | – |
| CN(C)C(n1cc2c(c1)-c1ccc(Cl)cc1C(c1ccccc1F)=NC2)n1cc2c(c1)-c1ccc(Cl)cc1C(c1ccccc1F)=NC2 | – | – | – | – | – | – | – | – | TGI (MDA-N): 52.7 µM |
| COC1(OC)C(N(C)C)=C(Cl)C(=O)/C1=C/C=O | > 100 µM | – | > 100 µM | > 100 µM | > 100 µM | > 100 µM | > 100 µM | – | – |
| Cc1[nH]c2ccccc2c1C(=O)/C=C/c1ccccc1O | > 100 µM | > 100 µM | > 100 µM | > 100 µM | – | > 100 µM | > 100 µM | – | – |
| CC(=O)OC12C=CC(=O)N1c1ccccc1C(=O)O2 (centres undefined) | > 100 µM | > 100 µM | > 100 µM | > 100 µM | – | > 100 µM | > 100 µM | – | – |
| N#CC(C(=O)C(=O)C(C#N)c1ccc(Br)cc1)c1ccc(Br)cc1 (centres undefined) | 25.8 µM | – | 34.5 µM | 24.9 µM | 26.5 µM | 27.7 µM | – | – | – |
| Oc1cccnc1[Se] | – | – | – | – | – | – | – | – | TGI (MDA-N): > 100 µM |
| [N-]=[N+]=N[C@H]1C[C@@H](CO)O[C@H]1n1cnc2c(N)ncnc21 | > 100 µM | > 100 µM | > 100 µM | > 100 µM | > 100 µM | > 100 µM | > 100 µM | – | – |
| Cc1ccc(NC(=O)CCc2cc(C(C)(C)C)nc(=S)[nH]2)cc1C | – | > 100 µM | – | > 100 µM | > 100 µM | > 100 µM | > 100 µM | – | – |
| CN(C)CC1CCCC/C1=N/OC(=O)c1ccc(Cl)cc1 (centres undefined) | > 100 µM | > 100 µM | > 100 µM | > 100 µM | – | > 100 µM | > 100 µM | – | – |
| COc1cc2c(c(OC)c1OC)-c1ccc(SC)c(=O)cc1C(NC=O)CC2 (centres undefined) | > 100 µM | > 100 µM | > 100 µM | > 100 µM | < 0.01 µM | < 0.01 µM | – | – | TGI (MDA-N): < 0.01 µM |
| COc1ccc(CC2NCCc3c2[nH]c2ccccc32)cc1 (centres undefined) | > 100 µM | 66.5 µM | > 100 µM | 87.7 µM | > 100 µM | > 100 µM | > 100 µM | 73.5 µM | – |

— PubChem BioAssay (NCI)
